Entries after “also recorded” stand apart in the source; their conditions may differ. Read-outs that look alike come from different tables or passages of the source.
Tests used:
[1] = biological target: T1, recombinant ERO1A (Mus musculus, UniProt Q8R180); experiment: AUR-based kinetic assay of ERO1A activity (recombinant ERO1A and PDIA1, HRP, Amplex Ultra Red); format: biochemical; conditions: for IC50: Table 1 in Fig. 3
T1 construct: GST-SMT3-mouse ERO1A (residues 43–464); GST-SMT3 (GST-SUMO) (N, cleaved yes); made in house; host or cells: E. coli Rosetta DE3 (Novagen)
T1 sequence (Q8R180 43-464): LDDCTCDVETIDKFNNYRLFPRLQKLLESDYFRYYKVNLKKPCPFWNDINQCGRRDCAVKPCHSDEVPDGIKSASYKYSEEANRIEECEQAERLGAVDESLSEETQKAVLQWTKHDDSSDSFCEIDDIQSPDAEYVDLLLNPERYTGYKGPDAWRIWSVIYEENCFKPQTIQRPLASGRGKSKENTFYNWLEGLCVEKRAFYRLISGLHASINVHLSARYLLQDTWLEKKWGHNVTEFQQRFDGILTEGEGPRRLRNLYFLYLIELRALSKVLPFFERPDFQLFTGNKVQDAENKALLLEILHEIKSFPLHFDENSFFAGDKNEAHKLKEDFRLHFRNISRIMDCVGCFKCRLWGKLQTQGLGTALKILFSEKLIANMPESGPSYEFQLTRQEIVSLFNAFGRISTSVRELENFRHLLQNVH
Text: A GST-SMT3-mouse ERO1A (residues 43–464) and His-tagged PDIA1 [30] were expressed in the Rosetta DE3 bacteria (Novagen) and purified as described in [29, 31]. The GST-SMT3 and His tags were cleaved using Ulp protease (Z03691, GenScript) and thrombin protease (T6884, Merck), respectively. Successful tag removal was confirmed by a shift to a lower molecular weight for ERO1A on SDS-PAGE and by the absence of signal in anti-His immunoblotting for PDIA1.
The kinetic assay of ERO1A activity is based on a reaction involving recombinant ERO1A and PDIA1 proteins, horseradish peroxidase (Worthington), and 5 μM Amplex Ultra Red, as detailed in [29]. The effect of ERO1A inhibitors was evaluated by preincubating the compounds with ERO1A and measuring the inhibition of the linear reaction rate, and the corresponding IC50 values were determined using Prism 10 (GraphPad).
EN460 and 16 newly synthesized derivatives (I24–I40) (except for I31, which was not evaluated due to potential toxicity associated with its CN group) were evaluated for their ability to inhibit ERO1-dependent AUR fluorescence using a kinetic assay with recombinant ERO1 and PDIA1, as previously described (Figs. 3A and 3B). Raw kinetic data showing AUR fluorescence over time in reactions containing reduced ERO1, PDIA1 and EN460-derivatives are presented in Fig. Sup.1 A and Sup. 1B. Reaction rates, measured in presence or absence of varying concentrations of each compound, were used to calculate IC50 values, defined as the concentration required to inhibit 50 % of ERO1 enzymatic activity (Figs. 3C, 3D and Fig. Sup1C).

[2] = biological target: T1, recombinant ERO1A; design: method as in PMID 39962052; conditions: SAR of I1–I23, Fig. 8A; cited from earlier work
[3] = biological target: recombinant PDI (Homo sapiens, UniProt P07237); experiment: PDI activity assay (insulin transhydrogenase / insulin turbidity assay); format: biochemical; conditions: 25 μM, 15 min incubation
Procedure: PDI activity was assessed using an insulin transhydrogenase assay. Bovine insulin (1 mg/mL) in sodium phosphate buffer, pH 7.0, containing 2 mM EDTA, was incubated with 1.4 μM recombinant PDI in the presence of vehicle (1 % DMSO) or various concentrations of isoquercetin (30 or 60 μM), EN460, I2, I26, or I29 (1, 5, or 25 μM) for 15 min. The turbidimetric assay of insulin disulfide reduction by PDI was initiated by adding 1 mM dithiothreitol, and the reaction was monitored at 650 nm for 80 min. PDI activity is presented as a percentage of the vehicle control.

[4] = biological target: T2, Human monoamine oxidase A (Mao-A) (Homo sapiens, UniProt P21397); experiment: Mao-A activity assay (commercial kit, p-tyramine, H2O2 fluorimetry); format: biochemical; conditions: 25 μM, 10 min incubation
T2 construct: purchased Sigma-Aldrich
T2 sequence (P21397 1-527): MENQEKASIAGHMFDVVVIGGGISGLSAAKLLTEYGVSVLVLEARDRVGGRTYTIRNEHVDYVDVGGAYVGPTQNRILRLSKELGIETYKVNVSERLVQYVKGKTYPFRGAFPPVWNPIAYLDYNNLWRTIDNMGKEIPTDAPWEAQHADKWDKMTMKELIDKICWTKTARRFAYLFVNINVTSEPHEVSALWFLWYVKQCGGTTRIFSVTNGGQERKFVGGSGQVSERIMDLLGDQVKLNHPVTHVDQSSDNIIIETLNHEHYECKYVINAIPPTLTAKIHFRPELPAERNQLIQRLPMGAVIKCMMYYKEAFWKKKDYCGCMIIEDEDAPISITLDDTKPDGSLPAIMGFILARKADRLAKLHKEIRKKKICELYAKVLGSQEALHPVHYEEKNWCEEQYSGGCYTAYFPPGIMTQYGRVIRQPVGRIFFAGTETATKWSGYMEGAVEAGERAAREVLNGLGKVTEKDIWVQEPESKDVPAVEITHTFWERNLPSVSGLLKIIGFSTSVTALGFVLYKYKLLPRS
Procedure: Mao-A activity was measured using a commercial assay kit according to the manufacturer’s instructions. Mao-A (0.837 μM) was incubated with vehicle (1 % DMSO), Clorgyline (50 μM), or various concentrations (1, 5, or 25 μM) of EN460, I2, I26, or I29 for 10 min. Mao-A catalyzes the oxidative deamination of p-tyramine, generating H2O2, which was quantified fluorimetrically (λex= 530; λem= 585 nm). Mao-A activity is presented as a percentage of the vehicle control.

[5] = test system: MDAMB231 cells; experiment: MTS assay of metabolic activity in MDAMB231 cells; format: cell-based, human; conditions: MDAMB231, dose-response, 24 h, 1 % FBS
Procedure: Six thousand cells (MDAMB231 and E0771) per well were seeded in 96-well plates and cultured in medium containing 1 % FBS. Cells were treated with varying concentrations of compounds and, after 24 h, incubated with MTS [3-(4,5-dimethylthiazol-2-yl)-5-(3-carboxymethoxyphenyl)-2-(4 sulfophenyl)2Htetrazolium]and PMS (phenazine methosulfate), following the instructions of the CellTiter 96® Aqueous Non-Radioactive Cell Proliferation Assay (Promega). Measurements were performed using a TECAN Infinite M200 plate reader with […] at 490 nm.

[6] = biological target: T3, ERO1 in MDA-MB-231 breast cancer cells (Homo sapiens, UniProt Q96HE7); experiment: ERO1 redox state by non-reducing immunoblot in MDA-MB-231 cells; format: cell-based; conditions: MDA-MB-231, 1–100 μM, in physiological solution or dissolved in DMSO, Fig. 4B
T3 construct: Non-reducing Immunoblot of endogenous ERO1 in lysates of vehicle-treated MDAMB231; endogenous in cells; host or cells: MDA-MB-231
T3 sequence (Q96HE7 24-468): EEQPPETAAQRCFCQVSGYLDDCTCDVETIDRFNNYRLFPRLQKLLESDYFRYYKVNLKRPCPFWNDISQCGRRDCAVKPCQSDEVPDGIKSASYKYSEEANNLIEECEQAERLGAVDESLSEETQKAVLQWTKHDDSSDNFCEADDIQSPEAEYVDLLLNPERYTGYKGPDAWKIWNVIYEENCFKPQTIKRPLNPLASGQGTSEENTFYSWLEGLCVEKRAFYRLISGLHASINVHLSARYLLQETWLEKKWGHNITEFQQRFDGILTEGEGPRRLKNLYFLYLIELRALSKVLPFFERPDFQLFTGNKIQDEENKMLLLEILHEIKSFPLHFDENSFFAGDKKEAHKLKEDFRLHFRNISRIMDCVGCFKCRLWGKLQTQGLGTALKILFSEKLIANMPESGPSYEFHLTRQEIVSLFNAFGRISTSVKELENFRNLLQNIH
Procedure: MDAMB231 and E0771 cells were maintained in Dulbecco’s Modified Eagle’s Medium supplemented with 1 % fetal bovine serum and seeded at 70 % confluency in six-well plates one day prior to the experiment. Cells were treated with DTT (10 mM) and/or ERO1A inhibitors for 1–5 h. At the time of collection, phosphate-buffered saline containing 10 mM NEM was added, and cells were incubated on ice for 10 min in lysis buffer (50 mM Tris-HCl, pH 7.4; 150 mM NaCl; 1 % Triton X-100; 0.1 % SDS; 1 % sodium deoxycholate; protease inhibitors; and 10 mM NEM). Protein concentrations were determined using the BCA assay, and equal amounts of protein were separated by non-reducing SDS-PAGE followed by immunoblotting with a polyclonal antibody against ERO1A [33].

[7] = compounds dissolved in DMSO, preincubated with ERO1A, NA stands for not active, read-out: IC50
[8] = logarithm of IC50 in μM, compounds dissolved in DMSO, read-out: Log IC50 (confidence intervals) (converted)

Sequence of recombinant PDI (P07237 18-508, species assumed): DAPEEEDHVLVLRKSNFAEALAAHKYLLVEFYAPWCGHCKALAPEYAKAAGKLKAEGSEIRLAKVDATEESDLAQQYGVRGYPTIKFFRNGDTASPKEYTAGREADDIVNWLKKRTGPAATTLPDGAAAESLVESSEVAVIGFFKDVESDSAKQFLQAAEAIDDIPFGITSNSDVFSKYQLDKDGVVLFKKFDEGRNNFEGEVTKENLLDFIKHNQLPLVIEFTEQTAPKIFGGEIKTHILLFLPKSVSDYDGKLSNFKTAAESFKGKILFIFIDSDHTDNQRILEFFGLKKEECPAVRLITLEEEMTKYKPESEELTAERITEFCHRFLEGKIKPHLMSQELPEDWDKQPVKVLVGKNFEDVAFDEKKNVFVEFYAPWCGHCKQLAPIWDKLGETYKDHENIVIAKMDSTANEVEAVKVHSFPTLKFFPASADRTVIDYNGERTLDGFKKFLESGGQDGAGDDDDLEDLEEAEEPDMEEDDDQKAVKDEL

Row | SMILES | IC50 [1, 7] [µM] | IC50 [1, 8] [µM] | ERO1 inhibitory activity (in words) ([1]; compounds dissolved in DMSO) | further results
1 | O=C(O)c1cc(N2N=C(C(F)(F)F)/C(=C\c3ccc(-c4cccc(F)c4)o3)C2=O)ccc1Cl [I36] | – | – | did not significantly affect inhibitory activity compared to EN460; also recorded: maintained the potency | –
2 | O=C1/C(=C/c2ccc(-c3ccccc3)o2)C(C(F)(F)F)=NN1c1cccc2ccccc12 [I24] | – | 8.51 | – | –
3 | Cc1ccccc1N1N=C(C(F)(F)F)/C(=C\c2ccc(-c3ccccc3)o2)C1=O [I25] | 17.7 | 17.8 | lowest potency | –
4 | O=C1/C(=C/c2ccc(-c3ccccc3)o2)C(C(F)(F)F)=NN1c1ccc(Cl)cc1 [I1] | – | – | – | ERO1 inhibitory activity (in words) [2]: inactive
5 | O=C(O)c1cccc(N2N=C(C(F)(F)F)/C(=C\c3ccc(-c4ccccc4)o3)C2=O)c1 [I3] | – | – | – | ERO1 inhibitory activity (in words) [2]: retained activity; IC50 [2]: 3.5 µM
6 | O=C(O)c1cc(N2N=C(c3ccccc3)/C(=C\c3ccc(-c4ccccc4)o3)C2=O)ccc1Cl [I10] | – | – | – | ERO1 inhibitory activity (in words) [2]: abolished the activity
7 | CC1=NN(c2ccc(Cl)c(C(=O)O)c2)C(=O)/C1=C/c1ccc(-c2ccccc2)o1 [I14] | – | – | – | ERO1 inhibitory activity (in words) [2]: abolished the activity
8 | COC(=O)c1cc(N2N=C(C(F)(F)F)/C(=C\c3ccc(-c4ccccc4)o3)C2=O)ccc1Cl [I6] | – | – | – | ERO1 inhibitory activity (in words) [2]: Inactive
9 | O=C(O)c1cc(N2N=C(C(F)(F)F)/C(=C\c3ccc(-c4cccc(C(F)(F)F)c4)o3)C2=O)ccc1Cl [I37] | – | 5.62 | did not significantly affect inhibitory activity compared to EN460; also recorded: maintained the potency | –

Now from value to compound, other results behind:

Row | IC50 [1, 7] [µM] | IC50 [1, 8] [µM] | ERO1 inhibitory activity (in words) ([1]; compounds dissolved in DMSO) | SMILES | further results
10 | 19.1 | 19.1 | – | O=C1/C(=C/c2ccc(-c3ccccc3)o2)C(C(F)(F)F)=NN1c1cccnc1 [I32] | –
11 | 10.7 | 10.7 | – | O=C1/C(=C/c2ccc(-c3ccccc3)o2)C(C(F)(F)F)=NN1c1cc(F)ccc1F [I30] | –
12 | – | – | loss of activity | O=C(O)c1cc(N2N=C(C(F)(F)F)/C(=C\c3ccc(-c4ccc(F)cc4)o3)C2=O)ccc1Cl [I38] | –
13 | – | 6.46 | – | Cc1cccc(C)c1N1N=C(C(F)(F)F)/C(=C\c2ccc(-c3ccccc3)o2)C1=O [I26] | PDI activity (percentage of the vehicle control) [3]: inhibited PDI activity; Mao-A activity (percentage of the vehicle control) [4]: inhibited Mao-A activity
14 | – | 4.79 | – | O=C1/C(=C/c2ccc(-c3ccccc3)o2)C(C(F)(F)F)=NN1c1ccccc1Cl [I28] | –
15 | – | 8.51 | – | COc1ccccc1N1N=C(C(F)(F)F)/C(=C\c2ccc(-c3ccccc3)o2)C1=O [I27] | –
16 | 5.6 | – | retained activity | O=C1/C(=C/c2ccc(-c3ccccc3)o2)C(C(F)(F)F)=NN1c1cccc(S(=O)(=O)O)c1 [I34] | IC50 / potency relative to EN460 ([1]; compared with EN460): comparable to EN460; ERO1 inhibitory activity (in words) ([1]; compound in aqueous solution (physiological solution)): completely inactive; metabolic activity (MTS assay) [5]: inactive; ERO1 reduction / activity in cells [6]: failed to reduce ERO1A; also recorded: completely inactive in cells; ERO1 reduction / activity in cells ([6]; listed as I34(DMSO)): inactive in cells
17 | 10.5 | – | loss of activity | COc1cccc(-c2ccc(/C=C3/C(=O)N(c4ccc(Cl)c(C(=O)O)c4)N=C3C(F)(F)F)o2)c1 [I39] | –
18 | 12 | – | reduced activity | O=C(O)c1cc(N2N=C(C(F)(F)F)/C(=C\c3ccc(-c4ccccc4)s3)C2=O)ccc1Cl [I40] | –

From publication PMC13198932, “Pyrazolone-based ERO1 inhibitors in ERO1-driven triple-negative breast cancer and SEPN1-related myopathy: Structure–activity relationship and therapeutic potential” (Pharmacological research, 2025)
